Data: article PMC7023430, “4-Aminobenzoic Acid Derivatives: Converting Folate Precursor to Antimicrobial and Cytotoxic Agents” (Biomolecules, 2019)
In brackets after ≈: the same amount, converted by molar mass. Where two headings read alike, the source gives them in different places.

Experiments:
[1] = test system: Escherichia coli ATCC 25922, CCM 3954; assay: Antibacterial microdilution broth method, E. coli; format: cell-based; conditions: Escherichia coli
[2] = test system: Mycobacterium avium 330/88; assay: Antimycobacterial micromethod in Šula's medium, M. avium; format: cell-based
[3] = test system: Candida krusei E28; assay: Antifungal microdilution broth method, C. krusei; format: cell-based; conditions: Pichia kudriavzevii
Procedure: (§1) The antifungal properties were evaluated against five yeast strains, namely: Candida albicans ATCC 44859, Candida tropicalis 156, Candida krusei […], Candida glabrata 20/I, Trichosporon […] 1188 and three strains of filamentous fungi: Aspergillus fumigatus 231, Lichtheimia corymbifera 272, and Trichophyton interdigitale 445. A microdilution broth method was performed according to EUCAST II, III instructions with slight modifications. Briefly, tested compounds were dissolved in DMSO and diluted in a twofold manner with RPMI-1640 medium with L-glutamine, supplemented with 2% glucose (w/v) and buffered to pH 7.0 with 3 morpholinopropane-1-sulfonic acid (all components were purchased from Sigma-Aldrich, USA). […] Positive controls consisted of test microbe solely, while negative controls consisted of medium and DMSO. Internal quality control was included too. Visual inspection was used for MIC endpoints evaluation. The experiments were conducted in duplicates. For the results to be valid, the difference in MIC determined from two parallel measurements must not be greater than one step on the dilution scale. PABA and triazole antimycotic drug fluconazole were involved as the reference compounds.

[4] = test system: Trichosporon asahii 1188; assay: Antifungal microdilution broth method, T. asahii; format: cell-based
Procedure: as §1

[5] = test system: Klebsiella pneumoniae D 11750/08; assay: Antibacterial microdilution broth method, K. pneumoniae; conditions: K. pneumoniae D 11750/08; for MIC KP 24 h: 24 h incubation; for MIC KP 48 h: 48 h incubation
[6] = test system: Pseudomonas aeruginosa ATCC 27853, CCM 3955; assay: Antibacterial microdilution broth method, P. aeruginosa; format: cell-based; conditions: Pseudomonas aeruginosa, P. aeruginosa
[7] = test system: Candida albicans ATCC 44859; assay: Antifungal microdilution broth method, C. albicans; format: cell-based
Procedure: as §1

[8] = test system: Candida glabrata 20/I; assay: Antifungal microdilution broth method, C. glabrata; format: cell-based; conditions: Nakaseomyces glabratus
Procedure: as §1

[9] = test system: Trichophyton interdigitale 445; assay: Antifungal microdilution broth method, T. interdigitale; format: cell-based
Procedure: as §1

[10] = test system: ESBL-positive Klebsiella pneumoniae J 14368/08
[11] = test system: four Gram-positive and four Gram-negative strains; assay: Antibacterial activity; format: cell-based; conditions: statement over the bacterial panel; time not stated
[12] = test system: Enterococcus faecalis ATCC 29212, CCM 4224; assay: Antibacterial microdilution broth method, E. faecalis; format: cell-based; conditions: Enterococcus faecalis
[13] = test system: methicillin-resistant Staphylococcus aureus ATCC 43300, CCM 4750 (MRSA); assay: Antibacterial microdilution broth method, MRSA; format: cell-based; conditions: Staphylococcus aureus
[14] = test system: Lichtheimia corymbifera 272; assay: Antifungal microdilution broth method, L. corymbifera; format: cell-based
Procedure: as §1

[15] = test system: Mtb. 331/88 and three non-tuberculous mycobacterial strains; assay: Antimycobacterial activity; format: cell-based; conditions: statement over four mycobacterial strains; time not stated
[16] = test system: eight fungal strains; assay: Antifungal activity; format: cell-based; conditions: statement over the fungal panel; time not stated
Procedure: as §1

[17] = test system: Candida tropicalis 156; assay: Antifungal microdilution broth method, C. tropicalis; format: cell-based
Procedure: as §1

[18] = test system: Aspergillus fumigatus 231; assay: Antifungal microdilution broth method, A. fumigatus; format: cell-based
Procedure: as §1

[19] = test system: Mycobacterium tuberculosis H37Rv (331/88); assay: Antimycobacterial micromethod in Šula's medium, M. tuberculosis; format: cell-based
[20] = test system: Staphylococcus aureus ATCC 29213, CCM 4223; assay: Antibacterial microdilution broth method, S. aureus; format: cell-based
[21] = test system: Mycobacterium kansasii 235/80; assay: Antimycobacterial micromethod in Šula's medium, M. kansasii 235/80; format: cell-based
[22] = test system: Staphylococcus epidermidis H 6966/08; assay: Antibacterial microdilution broth method, S. epidermidis; format: cell-based; conditions: Staphylococcus epidermidis, H6966/08, S. epidermidis
[23] = test system: M. kansasii 6509/96 (clinical isolate); assay: Antimycobacterial micromethod in Šula's medium, M. kansasii 6509/96; format: cell-based; conditions: Mycobacterium kansasii
[24] = test system: staphylococci; conditions: according to EUCAST ref 33; cited from earlier work
[25] = 24 h incubation, read-out: MIC EC 24 h
[26] = 48 h incubation, read-out: MIC EC 48 h
[27] = 330/88, 336 h, 14 days incubation at 37 °C, read-out: MIC M. avium 330/88 14 d
[28] = 330/88, 504 h, 21 days incubation at 37 °C, read-out: MIC M. avium 330/88 21 d
[29] = 24 h incubation, read-out: MIC PA 24 h
[30] = 48 h incubation, read-out: MIC PA 48 h
[31] = ATCC44859, 24 h, read-out: MIC CA 24 h
[32] = ATCC44859, 48 h, read-out: MIC CA 48 h
[33] = 24 h incubation, read-out: MIC EF 24 h
[34] = 48 h incubation, read-out: MIC EF 48 h
[35] = 24 h incubation, read-out: MIC MRSA 24 h
[36] = 48 h incubation, read-out: MIC MRSA 48 h
[37] = 336 h, 14 days incubation at 37 °C, read-out: MIC Mtb. 331/88 14 d
[38] = 504 h, 21 days incubation at 37 °C, read-out: MIC Mtb. 331/88 21 d
[39] = 24 h incubation, read-out: MIC SA 24 h
[40] = 48 h incubation, read-out: MIC SA 48 h
[41] = 235/80, 168 h, 7 days incubation at 37 °C, read-out: MIC M. kansasii 235/80 7 d
[42] = 235/80, 336 h, 14 days incubation at 37 °C, read-out: MIC M. kansasii 235/80 14 d
[43] = 235/80, 504 h, 21 days incubation at 37 °C, read-out: MIC M. kansasii 235/80 21 d
[44] = 24 h incubation, read-out: MIC SE 24 h
[45] = 48 h incubation, read-out: MIC SE 48 h
[46] = 168 h, 7 days incubation at 37 °C, read-out: MIC M. kansasii 6509/96 7 d
[47] = 336 h, 14 days incubation at 37 °C, read-out: MIC M. kansasii 6509/96 14 d
[48] = 504 h, 21 days incubation at 37 °C, read-out: MIC M. kansasii 6509/96 21 d

COc1ccccc1C=Nc1ccc(C(=O)O)cc1 [1s, 4-[(2-Methoxybenzylidene)amino]benzoic acid]
MIC [1, 25]: > 500 µM | MIC [1, 26]: > 500 µM | MIC [2, 27]: > 1000 µM | MIC [2, 28]: > 1000 µM | MIC ([3]; 24 h, read-out: MIC CK 24 h): > 500 µM | MIC ([3]; 48 h, read-out: MIC CK 48 h): > 500 µM | MIC ([4]; 24 h, read-out: MIC TA 24 h): > 500 µM | MIC ([4]; 48 h, read-out: MIC TA 48 h): > 500 µM | MIC KP 24 h [5]: >500 µM | MIC KP 48 h [5]: >500 µM | MIC [6, 29]: > 500 µM | MIC [6, 30]: > 500 µM | MIC [7, 31]: > 500 µM | MIC [7, 32]: > 500 µM | MIC ([8]; 24 h, read-out: MIC CG 24 h): > 500 µM | MIC ([8]; 48 h, read-out: MIC CG 48 h): > 500 µM | MIC ([9]; 72 h, read-out: MIC TI 72 h): > 500 µM | MIC ([9]; 120 h, read-out: MIC TI 120 h): > 500 µM | MIC KP-E 24 h [10]: >500 µM | MIC KP-E 48 h [10]: >500 µM | MIC, antibacterial activity [11]: avoided any antibacterial action | MIC [12, 33]: > 500 µM | MIC [12, 34]: > 500 µM | MIC [13, 35]: > 500 µM | MIC [13, 36]: > 500 µM | MIC ([14]; 24 h, read-out: MIC LC 24 h): > 500 µM | MIC ([14]; 48 h, read-out: MIC LC 48 h): > 500 µM | MIC, antimycobacterial activity [15]: only negligible antimycobacterial activity | MIC, antifungal activity [16]: no antimycotic potency | MIC ([17]; 24 h, read-out: MIC CT 24 h): > 500 µM | MIC ([17]; 48 h, read-out: MIC CT 48 h): > 500 µM | MIC ([18]; 24 h, read-out: MIC AF 24 h): > 500 µM | MIC ([18]; 48 h, read-out: MIC AF 48 h): > 500 µM | MIC [19, 37]: 1000 µM (≈ 255 µg/mL) | MIC [19, 38]: 1000 µM (≈ 255 µg/mL) | MIC [20, 39]: > 500 µM | MIC [20, 40]: > 500 µM | MIC [21, 41]: 1000 µM (≈ 255 µg/mL) | MIC [21, 42]: 1000 µM (≈ 255 µg/mL) | MIC [21, 43]: > 1000 µM | MIC [22, 44]: > 500 µM | MIC [22, 45]: > 500 µM | MIC [23, 46]: 1000 µM (≈ 255 µg/mL) | MIC [23, 47]: 1000 µM (≈ 255 µg/mL) | MIC [23, 48]: 1000 µM (≈ 255 µg/mL)

O=C(O)c1ccc(N=Cc2ccc(O)cc2)cc1 [1t, 4-[(4-Hydroxybenzylidene)amino]benzoic acid]
MIC [1, 25]: > 500 µM | MIC [1, 26]: > 500 µM | MIC [2, 27]: 1000 µM (≈ 241 µg/mL) | MIC [2, 28]: > 1000 µM | MIC ([3]; 24 h, read-out: MIC CK 24 h): > 500 µM | MIC ([3]; 48 h, read-out: MIC CK 48 h): > 500 µM | MIC ([4]; 24 h, read-out: MIC TA 24 h): > 500 µM | MIC ([4]; 48 h, read-out: MIC TA 48 h): > 500 µM | MIC KP 24 h [5]: >500 µM | MIC KP 48 h [5]: >500 µM | MIC [6, 29]: > 500 µM | MIC [6, 30]: > 500 µM | MIC [7, 31]: > 500 µM | MIC [7, 32]: > 500 µM | MIC ([8]; 24 h, read-out: MIC CG 24 h): > 500 µM | MIC ([8]; 48 h, read-out: MIC CG 48 h): > 500 µM | MIC ([9]; 72 h, read-out: MIC TI 72 h): > 500 µM | MIC ([9]; 120 h, read-out: MIC TI 120 h): > 500 µM | MIC KP-E 24 h [10]: >500 µM | MIC KP-E 48 h [10]: >500 µM | MIC, antibacterial activity [11]: avoided any antibacterial action | MIC [12, 33]: > 500 µM | MIC [12, 34]: > 500 µM | MIC [13, 35]: > 500 µM | MIC [13, 36]: > 500 µM | MIC ([14]; 24 h, read-out: MIC LC 24 h): > 500 µM | MIC ([14]; 48 h, read-out: MIC LC 48 h): > 500 µM | MIC, antimycobacterial activity [15]: only negligible antimycobacterial activity | MIC, antifungal activity [16]: no antimycotic potency | MIC ([17]; 24 h, read-out: MIC CT 24 h): > 500 µM | MIC ([17]; 48 h, read-out: MIC CT 48 h): > 500 µM | MIC ([18]; 24 h, read-out: MIC AF 24 h): > 500 µM | MIC ([18]; 48 h, read-out: MIC AF 48 h): > 500 µM | MIC [19, 37]: 1000 µM (≈ 241 µg/mL) | MIC [19, 38]: 1000 µM (≈ 241 µg/mL) | MIC [20, 39]: > 500 µM | MIC [20, 40]: > 500 µM | MIC [21, 41]: 1000 µM (≈ 241 µg/mL) | MIC [21, 42]: 1000 µM (≈ 241 µg/mL) | MIC [21, 43]: > 1000 µM | MIC [22, 44]: > 500 µM | MIC [22, 45]: > 500 µM | MIC [23, 46]: 1000 µM (≈ 241 µg/mL) | MIC [23, 47]: 1000 µM (≈ 241 µg/mL) | MIC [23, 48]: 1000 µM (≈ 241 µg/mL)

O=C1CN(/N=C/c2ccc([N+](=O)[O-])o2)C(=O)N1 [nitrofurantoin]
breakpoint for staphylococci [24]: 32 to 64 µg/mL
